Assay results published in patent publication US11358969B2, “Indole AHR inhibitors and uses thereof” (Ikena Oncology, Inc., priority 2017, dated 2022).

target: T1, AHR (UniProt P35869); experiment: DRE-Luciferase Reporter Assay (Alternate Method) (Example 1B); format: cell-based, murine or human; details: cell line and AHR activating ligand not specified
T1 construct: IC50
T1 sequence (P35869 1-848): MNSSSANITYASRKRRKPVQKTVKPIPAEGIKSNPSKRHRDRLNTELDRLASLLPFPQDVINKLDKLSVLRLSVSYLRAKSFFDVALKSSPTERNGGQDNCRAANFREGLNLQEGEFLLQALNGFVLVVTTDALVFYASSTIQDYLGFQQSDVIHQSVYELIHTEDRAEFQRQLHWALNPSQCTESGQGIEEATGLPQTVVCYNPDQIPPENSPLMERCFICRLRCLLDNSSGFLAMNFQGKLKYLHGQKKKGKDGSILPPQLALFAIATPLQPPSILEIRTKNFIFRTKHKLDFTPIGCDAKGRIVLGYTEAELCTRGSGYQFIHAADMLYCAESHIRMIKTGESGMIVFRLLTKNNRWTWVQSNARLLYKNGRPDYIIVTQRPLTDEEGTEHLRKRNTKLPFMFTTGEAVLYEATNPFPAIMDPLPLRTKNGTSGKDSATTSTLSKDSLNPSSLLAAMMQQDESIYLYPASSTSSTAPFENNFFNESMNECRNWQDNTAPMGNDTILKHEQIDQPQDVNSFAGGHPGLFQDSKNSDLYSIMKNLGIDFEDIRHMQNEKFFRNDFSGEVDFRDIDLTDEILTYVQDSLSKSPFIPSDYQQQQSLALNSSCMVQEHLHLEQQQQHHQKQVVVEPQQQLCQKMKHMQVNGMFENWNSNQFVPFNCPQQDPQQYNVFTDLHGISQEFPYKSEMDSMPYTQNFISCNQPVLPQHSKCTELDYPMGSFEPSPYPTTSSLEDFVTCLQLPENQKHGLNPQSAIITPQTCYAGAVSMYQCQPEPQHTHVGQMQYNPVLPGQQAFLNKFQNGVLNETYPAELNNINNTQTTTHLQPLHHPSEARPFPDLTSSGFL

IC50 [nM] | SMILES
> 1500 | Cc1cnn2c(-c3cncc(F)c3)cc(NCCc3c[nH]c4ccccc34)nc12 [I-124, 7-(5-Fluoro-3-pyridyl)-N-[2-(1H-indol-3-yl)ethyl]-3-methyl-pyrazolo[1,5-a] pyrimidin-5-amine]
> 1500 | Fc1cncc(-c2nc(N[C@@H]3CCc4[nH]c5ccccc5c4C3)n3ccnc3n2)c1 [I-125, (3R)—N-[2-(5-Fluoro-3-pyridyl)imidazo[1,2-a][1,3,5]triazin-4-yl]-2,3,4,9-tetrahydro-1H-carbazol-3-amine]
> 1500 | CC(C)c1cnn2c(N[C@H]3CCc4nc(N)sc4C3)nc(-c3cncc(F)c3)nc12 [I-128a, (6S)—N6-[2-(5-Fluoro-3-pyridyl)-8-isopropyl-pyrazolo[1,5-a][1,3,5]triazin-4-yl]-4,5,6,7-tetrahydro-1,3-benzothiazole-2,6-diamine]
> 1500 | CC(C)c1cnn2c(N[C@@H]3CCc4nc(N)sc4C3)nc(-c3cncc(F)c3)nc12 [I-128b, (6R)—N6-[2-(5-Fluoro-3-pyridyl)-8-isopropyl-pyrazolo[1,5-a][1,3,5]triazin-4-yl]-4,5,6,7-tetrahydro-1,3-benzothiazole-2,6-diamine]
< 500 | CC(C)(C)c1cnn2c(NCCc3c[nH]c4ccccc34)nc(-c3cncc(F)c3)nc12 [I-131, N-(2-(1H-Indol-3-yl)ethyl)-8-(tert-butyl)-2-(5-fluoropyridin-3-yl)pyrazolo[1,5-a][1,3,5]triazin-4-amine]
500 to 1000 | CC(C)(C)c1cnn2c(N[C@@H]3CCc4[nH]c5ccccc5c4C3)nc(-c3cncc(F)c3)nc12 [I-132, (R)—N-(8-(tert-Butyl)-2-(5-fluoropyridin-3-yl)pyrazolo[1,5-a][1,3,5]triazin-4-yl)-2,3,4,9-tetrahydro-1H-carbazol-3-amine]
< 500 | OCc1cnn2c(NCCc3c[nH]c4c(O)cccc34)cc(-c3cncc(F)c3)nc12 [I-133, 3-[2-[[5-(5-fluoro-3-pyridyl)-3-(hydroxymethyl)pyrazolo[1,5-a]pyrimidin-7-yl]amino]ethyl]-1H-indol-7-ol]
> 1500 | CC(C)Oc1cc(-c2cncc(F)c2)nc(N[C@@H]2CCc3[nH]c4ccccc4c3C2)n1 [I-134]
< 500 | CC(C)Oc1nc(N[C@@H]2CCc3[nH]c4ccccc4c3C2)nc(-c2cncc(F)c2)n1 [I-135, (3R)—N-[4-(5-Fluoro-3-pyridyl)-6-isopropoxy-1,3,5-triazin-2-yl]-2,3,4,9-tetrahydro-1H-carbazol-3-amine]
< 500 | CC(C)Oc1nc(NCCc2c[nH]c3ccccc23)nc(-c2cncc(F)c2)n1 [I-136, 4-(5-Fluoro-3-pyridyl)-N-[2-(1H-indol-3-yl)ethyl]-6-isopropoxy-1,3,5-triazin-2-amine]
< 500 | CC(C)c1cnn2c(N[C@H]3CCc4[nH]c5c(F)cc(F)cc5c4C3)nc(-c3cncc(F)c3)nc12 [I-139a, (3S)-6,8-difluoro-N-[2-(5-fluoro-3-pyridyl)-8-isopropyl-pyrazolo[1,5-a][1,3,5]triazin-4-yl]-2,3,4,9-tetrahydro-1H-carbazol-3-amine]
< 500 | CC(C)c1cnn2c(N[C@@H]3CCc4[nH]c5c(F)cc(F)cc5c4C3)nc(-c3cncc(F)c3)nc12 [I-139b, (3R)-6,8-difluoro-N-[2-(5-fluoro-3-pyridyl)-8-isopropyl-pyrazolo[1,5-a][1,3,5]triazin-4-yl]-2,3,4,9-tetrahydro-1H-carbazol-3-amine]
< 500 | Fc1cncc(-c2nc(NCCc3c[nH]c4ccccc34)n3ncc(Br)c3n2)c1 [I-141, 8-bromo-2-(5-fluoro-3-pyridyl)-N-[2-(1H-indol-3-yl)ethyl]pyrazolo[1,5-a][1,3,5]triazin-4-amine]
> 1500 | O=C(O)c1cnn2c(NCCc3c[nH]c4c(O)cccc34)cc(-c3cncc(F)c3)nc12 [I-142]
> 1500 | OCc1cnn2c(NCCc3c[nH]c4ccc(O)cc34)cc(-c3cncc(F)c3)nc12 [I-143, 3-[2-[[5-(5-fluoro-3-pyridyl)-3-(hydroxymethyl)pyrazolo[1,5-a]pyrimidin-7-yl]amino]ethyl]-1H-indol-5-ol]
1000 to 1500 | OCc1cnn2c(NC[C@@H](O)c3c[nH]c4ccccc34)cc(-c3cncc(F)c3)nc12 [I-144a, (1S)-2-[[5-(5-fluoro-3-pyridyl)-3-(hydroxymethyl)pyrazolo[1,5-a]pyrimidin-7-yl]amino]-1-(1H-indol-3-yl)ethanol]
> 1500 | CC(C)c1cnn2c(N[C@H]3CCc4c([nH]c5ccccc45)C3)nc(-c3cncc(F)c3)nc12 [I-146a]
> 1500 | CC(C)c1cnn2c(N[C@@H]3CCc4c([nH]c5ccccc45)C3)nc(-c3cncc(F)c3)nc12 [I-146b]
> 1500 | Fc1cncc(-c2nccc(NCCc3c[nH]c4ccccc34)n2)c1 [I-148]
> 1500 | Cc1cnn2c(NCCc3c[nH]c4c(O)cc(O)cc34)cc(-c3cncc(F)c3)nc12 [I-149]
< 500 | Cc1cnn2c(NC[C@H](O)c3c[nH]c4ccccc34)cc(-c3cncc(F)c3)nc12 [I-150a, (1R)-2-[[5-(5-Fluoro-3-pyridyl)-3-methyl-pyrazolo[1,5-a]pyrimidin-7-yl]amino]-1-(1H-indol-3-yl)ethanol]

IC50 [nM] | SMILES
1000 to 1500 | Cc1cnn2c(NC[C@@H](O)c3c[nH]c4ccccc34)cc(-c3cncc(F)c3)nc12 [I-150b, (1S)-2-[[5-(5-Fluoro-3-pyridyl)-3-methyl-pyrazolo[1,5-a]pyrimidin-7-yl]amino]-1-(1H-indol-3-yl)ethanol]
500 to 1000 | CC(C)Oc1cc(-c2ccccc2)nc(NCCc2c[nH]c3ccccc23)n1 [I-155, N-(2-(1H-Indol-3-yl)ethyl)-4-isopropoxy-6-phenylpyrimidin-2-amine]
> 1500 | Cc1c(-c2cncc(F)c2)nc2c(C)cnn2c1N[C@@H]1CCc2[nH]c3ccccc3c2C1 [I-157]
> 1500 | O=C(O)c1cnn2c(NC[C@H](O)c3c[nH]c4ccccc34)cc(-c3cncc(F)c3)nc12 [I-158a]
> 1500 | O=C(O)c1cnn2c(NC[C@@H](O)c3c[nH]c4ccccc34)cc(-c3cncc(F)c3)nc12 [I-158b]
> 1500 | Cc1cnn2c(NC[C@@H](C)c3c[nH]c4ccccc34)cc(-c3cncc(F)c3)nc12 [I-160a, 5-(5-Fluoro-3-pyridyl)-N-[(2S)-2-(1H-indol-3-yl)propyl]-3-methyl-pyrazolo[1,5-a]pyrimidin-7-amine]
> 1500 | Cc1cnn2c(NC[C@H](C)c3c[nH]c4ccccc34)cc(-c3cncc(F)c3)nc12 [I-160b, 5-(5-Fluoro-3-pyridyl)-N-[(2R)-2-(1H-indol-3-yl)propyl]-3-methyl-pyrazolo[1,5-a]pyrimidin-7-amine]
< 500 | Cc1cnn2c(NCC(=O)c3c[nH]c4ccccc34)cc(-c3cncc(F)c3)nc12 [I-163, 2-[[5-(5-Fluoro-3-pyridyl)-3-methyl-pyrazolo[1,5-a]pyrimidin-7-yl]amino]-1-(1H-indol-3-yl)ethanone]
> 1500 | Cc1cnn2c(NCC3(c4c[nH]c5ccccc45)CC3)cc(-c3cncc(F)c3)nc12 [I-167]
> 1500 | O=C(O)c1cnn2c(NCCc3c[nH]c4ccc(O)cc34)cc(-c3cncc(F)c3)nc12 [I-168]
500 to 1000 | Cc1c(-c2cncc(F)c2)nc2c(C)cnn2c1NCCc1c[nH]c2ccccc12 [I-169, 5-(5-Fluoro-3-pyridyl)-N-[2-(1H-indol-3-yl)ethyl]-3,6-dimethyl-pyrazolo[1,5-a]pyrimidin-7-amine]
> 1500 | Cc1cnn2c(NCC(C)(C)c3c[nH]c4ccccc34)cc(-c3cncc(F)c3)nc12 [I-170]
1000 to 1500 | Cc1cnn2c(NCC(C)c3c[nH]c4ccccc34)cc(-c3cncc(F)c3)nc12 (centres unmarked) [I-171, 5-(5-Fluoro-3-pyridyl)-N-[2-(1H-indol-3-yl)propyl]-3-methyl-pyrazolo[1,5-a]pyrimidin-7-amine]
1000 to 1500 | Cc1cnn2c(NCCc3c[nH]c4c(O)cccc34)cc(-c3cncc(F)c3)nc12 [I-172, 3-[2-[[5-(5-Fluoro-3-pyridyl)-3-methyl-pyrazolo[1,5-a]pyrimidin-7-yl]amino]ethyl]-1H-indol-7-ol]
> 1500 | Cc1cnn2c(NCCc3cn[nH]c3)cc(-c3cncc(F)c3)nc12 [I-173]
> 1500 | Cc1cnn2c(N[C@H](Cc3c[nH]c4ccccc34)CN(C)C)cc(-c3cncc(F)c3)nc12 [I-174]
> 1500 | CN(C)c1cnn2c(N[C@@H]3CCc4[nH]c5ccccc5c4C3)cc(-c3cncc(F)c3)nc12 [I-175, 5-(5-Fluoro-3-pyridyl)-N3,N3-dimethyl-N7-[(3R)-2,3,4,9-tetrahydro-1H-carbazol-3-yl]pyrazolo[1,5-a]pyrimidine-3,7-diamine]
> 1500 | Cc1cnn2c(NC(Cc3c[nH]c4ccccc34)CN(C)C)cc(-c3cncc(F)c3)nc12 (centres unmarked) [I-176]
> 1500 | Cc1cnn2c(NC(CO)Cc3c[nH]c4ccccc34)cc(-c3cncc(F)c3)nc12 (centres unmarked) [I-178]
< 500 | COc1cccc2c(CCNc3cc(-c4cncc(F)c4)nc4c(C)cnn34)c[nH]c12 [I-179, 5-(5-Fluoro-3-pyridyl)-N-[2-(7-methoxy-1H-indol-3-yl)ethyl]-3-methyl-pyrazolo[1,5-a]pyrimidin-7-amine]
